Results reported in patent US20100022415A1, “ACTIVE CARRIER, ITS PRODUCTION AND ITS USE” (AVICOR KET., priority 2006, published 2010).

System: streptavidin
Test: Affinity chromatography: elution of labeled streptavidin from biotinylated glass beads
Type: binding
Conditions: washing with solutions of increasing concentrations; absorbance of eluate (FIG. 5)
Procedure: The biotinylated glass beads were added to 1 ml PBS, to which 50 μg of streptavidin labeled with Cy5 fluorescent dye was added (total dye: 0.3 OD640/ml). The resulting solution was stirred, then OD640 was measured again, the detected value was 0.003. […] Two chromatographic analyses were performed to verify the specific binding. During the first, 100 mg of the biotinylated glass beads was washed with biotin solutions with increasing concentrations, and in the second, the column containing biotinylated glass beads was washed with benzamidine solutions of increasing concentrations. The absorbance of the eluate was measured continuously (FIG. 5).

**Q.** `O=C(O)CCCC[C@@H]1SC[C@@H]2NC(=O)N[C@@H]21` [biotin] was tested. Which “Elution of fluorescent labeled streptavidin from biotinylated glass beads” value did it give?
**A.** could be eluted only with the biotin solution
